According to PubChem BioAssay AID2060601 (Molecular Pharmacology Branch, DTP, NCI, 2025):

System: 874868-142-R-J2-PDC complex spheroids, growth % test/control
Assay: Anticancer human tumor 874868-142-R-J2-PDC patient-derived head and neck squamous carcinoma cell line growth inhibition [CLK]
Conditions: for IC50: curve of first compound; for viability, T/C: stronger effect = lower value
How it was run: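 Multi-cell-type spheroids combined patient-derived tumor cells with HUVEC endothelial cells and human mesenchymal stem cells. Paired agents were dosed in half-log steps down from about clinical Cmax, or from 10 microM where Cmax was unknown.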
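Further: spheroids exposed to the compounds for 7 days.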
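Wherever viability, T/C is given: 100% = DMSO vehicle control viability.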

For NC(=O)C(=Cn1cnc(-c2cc(C(F)(F)F)cc(C(F)(F)F)c2)n1)c1cncnc1 + CN1CCN(c2cc(C(=O)Nc3cc4cc(-c5cnn(C)c5)ccc4cn3)ccn2)CC1, the IC50 (second compound 0.0316 µM) was 51.3 nM, the IC50 (second compound 0.1 µM) was under 9.49 nM and the IC50 (second compound 0.316 µM) was under 9.49 nM. The IC50 (second compound 1 µM) was under 9.49 nM, the IC50 (second compound 3.16 µM) was under 9.49 nM and the IC50 (second compound 10 µM) was under 9.49 nM. It also gave a viability, T/C (second compound 0.0316 µM, first compound 0.00949 µM) of 69.8%, a viability, T/C (second compound 0.0316 µM, first compound 0.03 µM) of 62.5% and a viability, T/C (second compound 0.0316 µM, first compound 0.0949 µM) of 35.4%. For the same molecule, the viability, T/C (second compound 0.0316 µM, first compound 0.3 µM) was 20.1%, the viability, T/C (second compound 0.0316 µM, first compound 0.949 µM) was 1.73% and the viability, T/C (second compound 0.0316 µM, first compound 3 µM) was 2.54%. For the same molecule, the viability, T/C (second compound 0.1 µM, first compound 0.00949 µM) was 50%, the viability, T/C (second compound 0.1 µM, first compound 0.03 µM) was 44.8% and the viability, T/C (second compound 0.1 µM, first compound 0.0949 µM) was 25.2%. For the same molecule, the viability, T/C (second compound 0.1 µM, first compound 0.3 µM) was 3.61%, the viability, T/C (second compound 0.1 µM, first compound 0.949 µM) was 0.81% and the viability, T/C (second compound 0.1 µM, first compound 3 µM) was 0.34%. For the same molecule, the viability, T/C (second compound 0.316 µM, first compound 0.00949 µM) was 14%, the viability, T/C (second compound 0.316 µM, first compound 0.03 µM) was 5.04% and the viability, T/C (second compound 0.316 µM, first compound 0.0949 µM) was 0.53%. For the same molecule, the viability, T/C (second compound 0.316 µM, first compound 0.3 µM) was 0.23%, the viability, T/C (second compound 0.316 µM, first compound 0.949 µM) was 0.23% and the viability, T/C (second compound 0.316 µM, first compound 3 µM) was 0.1%. For the same molecule, the viability, T/C (second compound 1 µM, first compound 0.00949 µM) was 0.37%, the viability, T/C (second compound 1 µM, first compound 0.03 µM) was 0.25% and the viability, T/C (second compound 1 µM, first compound 0.0949 µM) was 0.32%. For the same molecule, the viability, T/C (second compound 1 µM, first compound 0.3 µM) was 0.28%, the viability, T/C (second compound 1 µM, first compound 0.949 µM) was 0.22% and the viability, T/C (second compound 1 µM, first compound 3 µM) was 1.66%. For the same molecule, the viability, T/C (second compound 3.16 µM, first compound 0.00949 µM) was 0.39%, the viability, T/C (second compound 3.16 µM, first compound 0.03 µM) was 0.31% and the viability, T/C (second compound 3.16 µM, first compound 0.0949 µM) was 0.46%. The viability, T/C (second compound 3.16 µM, first compound 0.3 µM) was 0.38%, the viability, T/C (second compound 3.16 µM, first compound 0.949 µM) was 0.19% and the viability, T/C (second compound 3.16 µM, first compound 3 µM) was 0.14%. For the same molecule, the viability, T/C (second compound 10 µM, first compound 0.00949 µM) was 0.14%, the viability, T/C (second compound 10 µM, first compound 0.03 µM) was 0.14% and the viability, T/C (second compound 10 µM, first compound 0.0949 µM) was 3.64%. The viability, T/C (second compound 10 µM, first compound 0.3 µM) was 0.17%, the viability, T/C (second compound 10 µM, first compound 0.949 µM) was 0.24% and the viability, T/C (second compound 10 µM, first compound 3 µM) was 0.2%.
Work on Nc1ccccc1NC(=O)c1ccc(CNC(=O)OCc2cccnc2)cc1 + CN1CCN(c2cc(C(=O)Nc3cc4cc(-c5cnn(C)c5)ccc4cn3)ccn2)CC1 yielded an IC50 (second compound 0.0316 µM) of 7470 nM, an IC50 (second compound 0.1 µM) of 4500 nM and an IC50 (second compound 0.316 µM) of under 31.6 nM. For the same molecule, the IC50 (second compound 1 µM) was under 31.6 nM, the IC50 (second compound 3.16 µM) was under 31.6 nM and the IC50 (second compound 10 µM) was under 31.6 nM. For the same molecule, the viability, T/C (second compound 0.0316 µM, first compound 0.0316 µM) was 86.7%, the viability, T/C (second compound 0.0316 µM, first compound 0.1 µM) was 79.6% and the viability, T/C (second compound 0.0316 µM, first compound 0.316 µM) was 88.7%. It also gave a viability, T/C (second compound 0.0316 µM, first compound 1 µM) of 116%, a viability, T/C (second compound 0.0316 µM, first compound 3.16 µM) of 94.5% and a viability, T/C (second compound 0.0316 µM, first compound 10 µM) of 35.2%. For the same molecule, the viability, T/C (second compound 0.1 µM, first compound 0.0316 µM) was 73.2%, the viability, T/C (second compound 0.1 µM, first compound 0.1 µM) was 67.8% and the viability, T/C (second compound 0.1 µM, first compound 0.316 µM) was 72.5%. For the same molecule, the viability, T/C (second compound 0.1 µM, first compound 1 µM) was 102%, the viability, T/C (second compound 0.1 µM, first compound 3.16 µM) was 62.8% and the viability, T/C (second compound 0.1 µM, first compound 10 µM) was 21.2%. For the same molecule, the viability, T/C (second compound 0.316 µM, first compound 0.0316 µM) was 13.4%, the viability, T/C (second compound 0.316 µM, first compound 0.1 µM) was 15.8% and the viability, T/C (second compound 0.316 µM, first compound 0.316 µM) was 15.8%. It also gave a viability, T/C (second compound 0.316 µM, first compound 1 µM) of 17.9%, a viability, T/C (second compound 0.316 µM, first compound 3.16 µM) of 7.51% and a viability, T/C (second compound 0.316 µM, first compound 10 µM) of 0.19%. The viability, T/C (second compound 1 µM, first compound 0.0316 µM) was 0.32%, the viability, T/C (second compound 1 µM, first compound 0.1 µM) was 6.56% and the viability, T/C (second compound 1 µM, first compound 0.316 µM) was 0.28%. For the same molecule, the viability, T/C (second compound 1 µM, first compound 1 µM) was 0.17%, the viability, T/C (second compound 1 µM, first compound 3.16 µM) was 0.12% and the viability, T/C (second compound 1 µM, first compound 10 µM) was 2.14%. It also gave a viability, T/C (second compound 3.16 µM, first compound 0.0316 µM) of 0.23%, a viability, T/C (second compound 3.16 µM, first compound 0.1 µM) of 0.27% and a viability, T/C (second compound 3.16 µM, first compound 0.316 µM) of 0.18%. The viability, T/C (second compound 3.16 µM, first compound 1 µM) was 0.2%, the viability, T/C (second compound 3.16 µM, first compound 3.16 µM) was 0.27% and the viability, T/C (second compound 3.16 µM, first compound 10 µM) was 0.26%. It also gave a viability, T/C (second compound 10 µM, first compound 0.0316 µM) of 0.1%, a viability, T/C (second compound 10 µM, first compound 0.1 µM) of 0.32% and a viability, T/C (second compound 10 µM, first compound 0.316 µM) of 0.16%. For the same molecule, the viability, T/C (second compound 10 µM, first compound 1 µM) was 0.14%, the viability, T/C (second compound 10 µM, first compound 3.16 µM) was 0.18% and the viability, T/C (second compound 10 µM, first compound 10 µM) was 2.46%.
